This is an account of results in patent US20030153808A1, “Implantation rate using ff-mas” (priority 2000, published 2003).

For one test, the system named is adult, cycling rat. Put plainly: Embryo implantation in the cycling rat after subcutaneous treatment. It is filed as in vivo. Conditions: 20 mg/kg s.c. once daily d1-d8, mating d7, uteri checked d16, female Wistar rats, 5 animals/group; vehicle 10 ± 4. The protocol:
A total of 15 sexually mature female Wistar rats with a body weight of 200-220 g and a 4-day cycle were used. The animals were divided in one control group (group 1) and two treatment groups (group 2-3) consisting of 5 animals/group, respectively.
Starting in metestrus (d1) animals were treated for eight days (d1-d8), once daily, subcutaneously with the test compounds (treatment groups) or vehicle (control group), respectively. At day 7, at proestrus, animals were mated. The success of mating was checked by the presence of sperms in the vagina at d8. At d16 animals were sacrificed. Uteri were removed and checked for the presence of implantation sides. In each animal the number of implantation sides were determined.
Control group 1 received vehicle alone [(ethanol/arachisoil, 1+9 (v/v)].
Group 2 received 20 mg/kg FF-MAS, prepared in an ethanol/arachisoil vehicle.
Group 2 received 20 mg/kg FF-MAS-succinate, prepared in an ethanol/arachisoil vehicle.

Test [1] concerns mouse oocytes. Put plainly: Implantation rate after IVF: mouse oocyte cultivation with FF-MAS, in vitro-fertilization, tubal retransfer to foster mothers. Format: cell-based. The protocol: Oocytes are obtained by puncture using a fine needle from the ovaries of mice primed with PMSG (pregnant mare serum gonadotrophin). The oocytes are cultivated for approx. 20 hours in a defined hypoxanthine-containing culture medium (Hx medium, see above) with FF-MAS (10 μM) (37° C.). The control oocytes are cultivated in defined culture medium without FF-MAS for the same period of time. Both the FF-MAS-oocytes and the control oocytes have begun meiosis maturation at the end of the culture period. All oocytes punctured on one day (from various mice) are pooled and distributed over the two study groups.
The oocytes cultivated in the mouse oocyte assay are further processed in this experiment. They are washed briefly 3× in a defined medium not containing FF-MAS and subsequently transferred into an IVF medium not containing FF-MAS. Then a defined number of capacitated sperms (obtained from the epididymides of a male mouse) is added and the oocytes are incubated with the sperms for approx. 4 hours in an incubator at 37° C. Following incubation the number of inseminated oocytes is counted.
1 day before the retransfer female recipient mice (foster mothers) in pre-estrus are mated with vasectomized males in order to trigger pseudogestation. One day later a vaginal check is performed. Animals with positive, sperm-free vaginal prop (successful mating) enter the study. This day is day 0 of gestation (=day 0 after the sterile copulation). Approx 10-15 inseminated oocytes are transferred into one tube (right) to the foster mothers on day 0 after the sterile copulation under anesthetization. The contralateral tube remains unused (check for pseudogestation). Only inseminated oocytes from the IVF experiment are used.
Retransfer is repeated until approx. 20 evaluable litters (with viable fetuses) have been obtained in all study groups (10 μM FF-MAS and one untreated control group).
The foster mothers are killed on day 17 of gestation. Uteri are removed. The number of viable and dead fetuses, the number of foster mothers, the number of pregnant foster mothers and the number of pregnant foster mothers with viable fetuses and with total fetal death, respectively, are counted.

Test [2] deals with mouse oocytes. Conditions: added to the culture medium; Hegele-Hartung et al. 1998; cited from earlier work.
For another test, the system named is human oocytes. As to conditions: Grøndahl et al. 1999; cited from earlier work.

On to `CC(C)=CCCC(C)C1CC=C2C3=C(CCC21C)C1(C)CCC(OC(=O)CCC(=O)O)C(C)(C)C1CC3` (centres unmarked) [FF-MAS-succinate], for which the “Number of implantation sides [x ± sd] d16” value in the test on adult, cycling rat is recorded as 12 ± 2.

Take `CC(C)=CCC[C@@H](C)[C@H]1CC=C2C3=C(CC[C@@]21C)[C@@]1(C)CC[C@H](O)C(C)(C)[C@@H]1CC3` [FF-MAS, 4,4-dimethyl-5a-cholesta-8,14,24-triene-3β-ol]: in the test with adult, cycling rat, the “Number of implantation sides [x ± sd] d16” value is listed as 15 ± 3. Further, the “Number of pregnant foster mothers [n]” value in the test with mouse oocytes [1] (10 μM FF-MAS in culture medium, 69 foster mothers, control 43 of 153) came to 27 n. In addition, the “Number of pregnant foster mothers [%]” value with mouse oocytes [1] (10 μM FF-MAS in culture medium, % of foster mothers, control 28) is 40%. Moreover, in the test with mouse oocytes [1] (10 μM FF-MAS in culture medium, % of pregnant foster mothers, control 47), the “Number of pregnant foster mothers with viable fetuses [%]” value is 78%. In addition, the “Numbers of pregnant foster mothers with total fetal death [%]” value in the test on mouse oocytes [1] (10 μM FF-MAS in culture medium, % of pregnant foster mothers, control 54) is 22%. The “Number of pregnant foster mothers with viable fetuses [n]” value with mouse oocytes [1] (10 μM FF-MAS in culture medium, control 20) turned out to be 21 n. In the test with mouse oocytes [1] (10 μM FF-MAS in culture medium, control 23), the “Numbers of pregnant foster mothers with total fetal death [n]” value amounted to 6 n. Also, the “Number of viable fetuses [n]” value with mouse oocytes [1] (10 μM FF-MAS in oocyte culture medium approx. 20 h, IVF, retransfer, foster mothers killed day 17 of gestation, 69 foster mothers, control 45 of 153) amounted to 42 n. In addition, the fertilization rate entry in the test on mouse oocytes [2] is “increase the fertilization rate”. In the test with human oocytes, the “nuclear and cytoplasmic maturation” value was “improvement in nuclear and cytoplasmic maturation”.
